Data taken from patent publication US8980832B2, “Use of fumaric acid derivatives for treating cardiac insufficiency, and asthma” (Biogen Idec International GmbH, priority 2003, dated 2015).
Where a name gives a salt, the structure may show the parent alone.

How the values were obtained:
[1] = tested on: rat model of acute ischemia and reperfusion; experiment: acute ischemia and reperfusion model of the rat, size of the infarction; assay type: in vivo; conditions: 10 mg dimethyl fumarate in 0.02% DMSO iv at beginning of first occlusion; 45 min ischemia, 120 min reperfusion; vs control
Experimental: The effects of dimethyl fumarate were examined in the present experiment using the model of acute ischemia and reperfusion of the rat. For this purpose, healthy, male rats were divided into three groups with 17 animals each. In the tests, an ischemia was caused for 45 minutes through an occlusion of an artery with the heart being exposed and, subsequently, reperfusion was carried out for 120 minutes. Finally, a myocardial infarction was triggered by means of a reocclusion and the risk area was determined by means of dyeing with phthalocyanine blue. The administration of the test substance was carried out iv at the beginning of the first occlusion. The control group received 0.02% DMSO (0.5 ml/kg body weight), the DMF group received 10 mg dimethyl fumarate in 0.02% DMSO (0.5 ml/kg body weight). The animals were ischemically preconditioned in the second group (2 times 5 minutes each ischemia and reperfusion). The results are represented in FIG. 1.

[2] = tested on: BSM (bronchial smooth muscle) cells; experiment: inhibition of the PDGF-induced incorporation of 3H-thymidine in BSM cells (Example B); assay type: cell-based; conditions: 10^-5 M dimethyl fumarate; 0, 1, 5, 10 and 20 ng/ml PDGF; 24 h 3H-thymidine
Experimental: BSM (bronchial smooth muscle) cells were cultivated in RPMI, 0.3% albumin and 0.1% DMSO at 37° C. in the presence of 0, 1, 5, 10 and 20 ng/ml on PDGF with and without 10^−5 M dimethyl fumarate.
After a predetermined period of time, 5 μCi on ^3H-thymidine was added to the culture medium and incubation was continued for further 24 hours. The incorporation was finally stopped by means of centrifugation, removal of the supernatant, washing and lysis of the cells. The incorporation on ^3H-thymidine was measured by determining the radioactivity in the lysates in a liquid scintillation device in comparison to the control. The results are shown in FIG. 2 as percentage values as compared with the control (100%).

Dahl-rats = experiment: left ventricular enddiastolic diameter in Dahl rats on high salt diet, echocardiography; assay type: in vivo, rat; conditions: 2x5 and 2x15 mg DMF/kg/d, 8 weeks of high salt diet
Experimental: Dahl-rats, which are salt sensitive, were administered varying dosages of DMF on a daily basis and put on a high salt diet. After 8 weeks of treatment the left ventricular enddiastolic diameters were measured for test and control groups by echocardiographic analysis. Groups measured were control (0 mg DMF; n=9); group 1 (2×5 mg DMF/kg/d; n=9) and group 2 (2×15 mg DMF/kg/d; n=11). […] Specifically, in the DMF groups the inner diameter of the left ventricle remained in the same range as at baseline (see FIG. 4). […] Importantly, dilatation of the left ventricle marks the transition from compensated hypertrophy to decompensated heart failure. Consequently, DMF delays the transition to heart failure, and thus prevents myocardial infarctions.

[3] = tested on: Bronchial smooth muscle cells; experiment: PDGF-stimulated proliferation of bronchial smooth muscle cells, 3H-thymidine (Example C); assay type: cell-based; conditions: 10 ng/ml PDGF; 10^-5 M DMF; 36 h treatment + 8 h 3H-thymidine
Experimental: Bronchial smooth muscle cells were grown in 96 well plates until they reached 60-70% confluency. The cells were then starved for 48 h in serum free, 0.3% albumine containing RPMI medium. […] As a control untreated cells (buffer only) were used. Cells were treated for 36 h, whereafter 4 μCi of ^3H-thymidine was added for further 8 hours. The cells were lysed, DNA-incorporated ^3H-thymidine bound to filter membranes, and the incorporated cpm measured in a liquid scintillation device.

Q: How did the “size of the infarction” value [1] turn out when `COC(=O)/C=C/C(=O)OC` [DMF, dimethyl fumarate] was run?
A: Its value is “limited the size of the infarction to a statistically significant degree”.

Q: What about the “PDGF-induced 3H-thymidine incorporation” value [2] of the same molecule?
A: The value was “this increase is significantly reduced”.

Q: What about the “dilatation of the left ventricle (left ventricular enddiastolic diameter)” value (Dahl-rats) of the same molecule?
A: Its value is “prevented the dilatation of the left ventricle after 8 weeks of high salt diet in dose dependent manner”.

Q: And the “cell proliferation, percentage of control (100%)” value [3]?
A: Its value is 116±4%.
